Measured values as given in ChEMBL document CHEMBL1127943, “Morpholine-based substance P antagonists: assessment of the 3-point binding model” (Bioorg Med Chem Lett, 1994).
pIC50: −log10 of the molar value.

biological target: Substance-P receptor (Homo sapiens, UniProt P25103); test: Binding affinity towards human Tachykinin receptor 1 by the displacement of [125I]- Substance P in CHO Cells
Sequence (P25103 whole entry): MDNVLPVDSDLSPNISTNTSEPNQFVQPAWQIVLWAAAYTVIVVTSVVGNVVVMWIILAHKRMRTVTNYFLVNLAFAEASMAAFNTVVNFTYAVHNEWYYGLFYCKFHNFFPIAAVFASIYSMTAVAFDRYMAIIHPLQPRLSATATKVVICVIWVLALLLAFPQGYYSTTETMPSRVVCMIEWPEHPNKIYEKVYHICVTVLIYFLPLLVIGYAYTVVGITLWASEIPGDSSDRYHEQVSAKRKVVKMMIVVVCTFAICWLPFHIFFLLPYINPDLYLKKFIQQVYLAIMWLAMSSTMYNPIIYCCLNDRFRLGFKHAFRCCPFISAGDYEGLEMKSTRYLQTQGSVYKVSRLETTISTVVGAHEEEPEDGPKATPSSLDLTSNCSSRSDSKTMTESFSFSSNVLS

Structure (SMILES) | pIC50
O=C1CO[C@@H](/C=C/c2cc(C(F)(F)F)cc(C(F)(F)F)c2)[C@@H](c2ccccc2)N1 | 5.60
FC(F)(F)c1cc(CC[C@@H]2OCCN[C@@H]2c2ccccc2)cc(C(F)(F)F)c1 | 5.82
FC(F)(F)c1cc(C2OC2[C@@H]2OCCN[C@@H]2c2ccccc2)cc(C(F)(F)F)c1 (some centres undefined) | 7.06
FC(F)(F)c1cc(CC[C@H]2OCCN[C@@H]2c2ccccc2)cc(C(F)(F)F)c1 | 5.95
